Measurements reported in PubChem BioAssay (NCI).
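In this assay, cells in 96-well plates receive the compound at five concentrations for 48 hours. Endpoints are linearly interpolated between the surrounding concentrations. Abbreviation: GI50, concentration required for 50% inhibition of growth. At the TGI there is no net growth.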

Assays:
Test in all cases: growth of human tumour cells (NCI), 48 h
A498 renal = system: A498 renal
A549 NSCLC = system: A549 NSCLC
ACHN renal = system: ACHN renal
CAKI-1 renal = system: CAKI-1 renal
CCRF-CEM leukemia = system: CCRF-CEM leukemia
COLO 205 colon = system: COLO 205 colon
HCC-2998 colon = system: HCC-2998 colon
HOP-92 NSCLC = system: HOP-92 NSCLC
LOX IMVI melanoma = system: LOX IMVI melanoma
M14 melanoma = system: M14 melanoma
NCI-H226 lung = system: NCI-H226 lung
NCI-H522 lung = system: NCI-H522 lung
RPMI-8226 leukemia = system: RPMI-8226 leukemia
SF-295 CNS = system: SF-295 CNS
SF-539 CNS = system: SF-539 CNS
SNB-19 CNS = system: SNB-19 CNS
UACC-62 melanoma = system: UACC-62 melanoma
HL-60(TB) leukemia = system: HL-60(TB) leukemia

Row | SMILES | TGI (A498 renal) [µM] | TGI (A549 NSCLC) [µM] | TGI (ACHN renal) [µM] | TGI (CAKI-1 renal) [µM] | TGI (CCRF-CEM leukemia) [µM] | TGI (COLO 205 colon) [µM] | TGI (HCC-2998 colon) [µM] | TGI (HOP-92 NSCLC) [µM] | TGI (LOX IMVI melanoma) [µM] | TGI (M14 melanoma) [µM] | TGI (NCI-H226 lung) [µM] | TGI (NCI-H522 lung) [µM] | TGI (RPMI-8226 leukemia) [µM] | TGI (SF-295 CNS) [µM] | GI50 (SF-539 CNS) [µM] | TGI (SF-539 CNS) [µM] | TGI (SNB-19 CNS) [µM] | GI50 (UACC-62 melanoma) [µM] | TGI (UACC-62 melanoma) [µM] | TGI (HL-60(TB) leukemia) [µM]
1 | CC#Cc1cc2c(cc1O)CC[C@@H]1[C@@H]2CC[C@]2(C)[C@@H](O)CC[C@@H]12 | 27.9 | > 37.8 | > 69.6 | > 69.6 | > 100 | 33.4 | 19.2 | 26.9 | 19.5 | 17.7 | 17.8 | 2.71 | > 66.1 | 2.73 | 0.939 | 6.04 | 29.1 | 0.503 | 16.7 | –
2 | CC(C)[Si](OC1=C(C(=O)N(C)c2ccccc2Cl)CCCC1)(C(C)C)C(C)C | 31 | 14.3 | 29.5 | 27.3 | 29.7 | 29.3 | 28.1 | 26.3 | 30 | 30.2 | 31 | 19.2 | 55.4 | 20.9 | – | 32.7 | 25.6 | – | 34 | –
3 | CCOC(CI)O[C@@H]1C=C[C@H](OC(C)=O)C1 (stereo not given in full) | > 100 | > 100 | > 100 | > 100 | > 100 | > 100 | > 100 | – | – | > 100 | > 100 | – | > 100 | > 100 | – | > 100 | > 100 | – | > 100 | –
4 | CSCCCNC(=O)c1csc(-c2csc(CCN)n2)n1 | – | > 100 | > 100 | > 100 | > 100 | > 100 | > 100 | > 100 | > 100 | > 100 | – | > 100 | > 100 | > 100 | – | > 100 | > 100 | – | > 100 | > 100
5 | O=C(Cc1ccccc1)NNc1nc(NNC(=O)c2ccncc2)nc(Nc2ccccc2)n1 | – | – | – | > 10 | > 10 | > 10 | > 10 | > 10 | > 10 | > 10 | – | – | > 10 | – | – | > 10 | – | – | > 10 | > 10
6 | O=C(O)Cc1cccc2c1OC(c1ccccc1)C(C(=O)c1ccccc1)C2=O (stereo not given) | – | > 100 | > 100 | > 100 | > 100 | > 100 | 59.7 | – | > 100 | – | > 100 | > 100 | > 100 | > 100 | – | > 100 | > 100 | – | 48.7 | 50.9
7 | CC1(c2nc3ccccc3[nH]2)CCC(C(N)=O)C(C)(C)O1 (stereo not given) | – | > 100 | > 100 | > 100 | > 100 | > 100 | > 100 | > 100 | > 100 | > 100 | > 100 | > 100 | > 100 | > 100 | – | > 100 | > 100 | – | > 100 | > 100
8 | COc1ccc(OC)c(-c2nc3ccccc3c(=O)[nH]2)c1 | > 100 | > 100 | > 100 | > 100 | > 100 | > 100 | > 100 | – | – | > 100 | > 100 | – | > 100 | > 100 | – | > 100 | > 100 | – | > 100 | –
9 | COc1ccc2c(c1)CC[C@@H]1[C@@H]2CC[C@]2(C)C(=O)/C(=C/c3ccncc3)C[C@@H]12 | 87.6 | > 100 | > 100 | > 100 | > 100 | > 100 | 75.4 | 77.9 | > 100 | > 100 | > 100 | 92.1 | > 100 | 66.6 | – | 55.1 | > 100 | – | > 100 | –
10 | COc1ccccc1N1C(=O)CS(=O)(=O)C1c1cccc(Oc2ccccc2)c1 (stereo not given) | 34.6 | 40.5 | 33.7 | 64.3 | > 100 | 34.4 | – | 24.7 | 36.1 | 33.3 | 31.8 | 29.3 | – | 38.2 | – | 32.6 | 38.7 | – | 25.3 | 79.9
11 | COCOCC1CCCN1CN1CCC[C@H]1COCOC (stereo not given in full) | > 100 | > 100 | > 100 | > 100 | > 100 | > 100 | – | > 100 | – | > 100 | > 100 | > 100 | 99.5 | > 100 | – | – | > 100 | – | > 100 | 61.3
12 | C[C@H]1CCCCC[C@@H]2CC(=O)CC2C(=O)CCC(=O)O1 (stereo not given in full) | – | > 100 | > 100 | – | > 100 | > 100 | > 100 | > 100 | – | > 100 | > 100 | > 100 | > 100 | > 100 | – | > 100 | > 100 | – | > 100 | > 100
13 | COc1ccc2c(c1)CCCN1Cc3cc(OC)c(OC)cc3CC21 (stereo not given) | – | > 100 | > 100 | > 100 | > 100 | > 100 | > 100 | > 100 | > 100 | 44.1 | > 100 | > 100 | – | > 100 | – | > 100 | > 100 | – | > 100 | –
14 | Cc1cc(N(CCCCl)CCCCl)ccc1C=Nc1cccc(Cl)c1 | – | 24.7 | 25.8 | – | – | 23.6 | – | – | 26.7 | 60.5 | 0.562 | 43.7 | 0.231 | 43.5 | – | – | 34.6 | – | 7.28 | 38
15 | O=C(Nc1nnc(-c2c(Cl)c(Cl)c(Cl)c(Cl)c2-c2nc3cc(C(=O)c4ccccc4)ccc3[nH]2)o1)c1ccccc1 | 49.6 | 31.9 | 55.6 | > 100 | 20.8 | 24.5 | – | 44.5 | 32 | 34.4 | 35.5 | – | 30.4 | 24.3 | – | 23.7 | 34.7 | – | – | 65.3
16 | O=C1Oc2ccccc2C(=O)/C1=C/N1C(=O)N/C(=C\c2cccc(O)c2)C1=O | – | > 100 | > 100 | > 100 | – | > 100 | > 100 | > 100 | > 100 | > 100 | > 100 | – | – | > 100 | – | > 100 | > 100 | – | – | > 100
17 | Nc1ccc2cc3[nH]c4cc(N)ccc4c3nc2c1 | 1.24 | 3.38 | 0.257 | 0.636 | – | 1.27 | 0.976 | 0.737 | 0.911 | 1.36 | 1.8 | 64.6 | > 100 | 1.37 | – | 1.4 | 3.76 | – | 0.708 | –
18 | COc1c(C)c(C/C=C(\C)CCCCO)c(OC)c(OC)c1OC | – | 69.6 | > 100 | – | > 100 | > 100 | – | > 100 | 61.2 | > 100 | – | > 100 | 35.4 | > 100 | – | > 100 | > 100 | – | > 100 | –
19 | O=C(Nc1nc2ccccc2n1Cc1ccc(Cl)cc1)NC12CC3CC(CC(C3)C1)C2 | – | 66.5 | > 100 | > 100 | > 100 | > 100 | > 100 | 56.8 | > 100 | > 100 | 70.7 | 42.7 | > 100 | 27.3 | – | 53.4 | 53.7 | – | 38 | > 100
20 | CN1C(=O)c2c(c3c4ccccc4n(C4OC(CO)C(O)C(O)C4O)c3c3[nH]c4ccccc4c23)C1=O (stereo not given) | 3.26 | 29.6 | 6.45 | 5.3 | 1.68 | 6.79 | 7.72 | 5.86 | 5.49 | 6.13 | – | 1.66 | 59.8 | 10.9 | – | 4.7 | 8.42 | – | 4.09 | –
21 | Cc1nc2ccccc2c(=O)n1NC(=S)Nc1cccc(Cl)c1 | > 100 | > 100 | > 100 | > 100 | > 100 | > 100 | – | > 100 | > 100 | > 100 | > 100 | > 100 | > 100 | > 100 | – | > 100 | – | – | > 100 | > 100
22 | COc1ccc(C2CC(=O)CC(c3ccc(OC)cc3)C23C(=O)NC(=S)NC3=O)cc1 (stereo not given) | – | – | > 100 | > 100 | > 100 | > 100 | > 100 | > 100 | > 100 | > 100 | > 100 | > 100 | – | > 100 | – | > 100 | > 100 | – | > 100 | > 100
23 | COc1ccc(/C=C2\SC(c3ccc(OC)cc3)N(NC(=O)Cc3ccccc3)C2=O)cc1 (stereo not given) | > 100 | > 100 | > 100 | > 100 | > 100 | > 100 | – | > 100 | > 100 | > 100 | > 100 | > 100 | > 100 | > 100 | – | > 100 | – | – | > 100 | > 100
